The values that follow are results of earlier work, collected in patent US8092782B2, “Polybiotin compounds of magnetic resonance imaging and drug delivery” (priority 2003, dated 2012).

For triacetyl-beta-cyclodextrin, the “solubility in water” value is “insoluble”.
